The assay relates to U2OS cells. As to the kind of experiment: FACS-based nocodazole trap experiment, pHH3 staining after doxorubicin. It is filed as cell-based. More on the design: pHH3-positive cells: dose or concentration left out as unconfirmed. How it is done: U2OS cells were infected with lentiviruses delivering luciferase-, MK2-, or Chk1-specific shRNAs (FIG. 1A). The ability of these cells to engage and maintain a functional cell-cycle checkpoint following genotoxic stress was analyzed using a FACS-based nocodazole trap experiment. […] In response to […] doxorubicin treatment for 1 hour, luciferase control shRNA-expressing cells mounted an intra-S and G2/M checkpoint response that remained stable for the 30-hour course of the experiment, as evidenced by the accumulation of a largely pHH3-negative 4N population (bottom panel, left, and FIG. 1B). MK2 shRNA-expressing cells initiated a functional intra-S, G2/M cell-cycle checkpoint that remained intact for at least 18 hours. At the 24-hour measurement, this checkpoint response started to decline with an increasing number of pHH3-positive cells showing a 4N DNA content, reflecting mitotically trapped cells (bottom panel, middle, and FIG. 1B). […] FIG. 1B is a quantification of pHH3 staining of the samples shown in FIG. 1A (n=7 experiments, mean values are shown with error bars indicating standard deviation).
Experiments were performed to determine the role of Chk1 and MK2 in the G2/M checkpoint in p53-deficient cells following DNA damage. In a first set of experiments, U2OS cells were infected with lentiviruses delivering luciferase-, MK2-, or Chk1-specific shRNAs. The ability of ability of these cells to engage and maintain functional cell-cycle checkpoint following genotoxic stress (1 hour of […] doxorubicin) was analyzed using a FACS-based nocodazole trap experiment. The data from these experiments are shown in FIG. 1A and are described below.
The above constructs were expressed in asynchronously growing Chk1- or MK2-knockdown cells, which were left untreated or exposed to doxorubicin for 1 hour, followed by addition of nocodazole for 2 hours after removal of doxorubicin, to capture cells escaping from DNA damage checkpoints in mitosis (FIG. 3B). As an additional control, cells were treated with nocodazole alone. The cells were harvested 30 hours after doxorubicin and cell-cycle disruption was assessed using FACS. […] This arrest was completely abrogated in cells expressing a Chk1 shRNA (FIGS. 3B and 3C).

The record followed here is patent US20120252737A1, “Methods for Diagnosing and Treating Cancer” (Massachusetts Institute of Technology, priority 2009, published 2012).

`COc1cccc2c1C(=O)c1c(O)c3c(c(O)c1C2=O)C[C@@](O)(C(=O)CO)C[C@@H]3O[C@H]1C[C@H](N)[C@H](O)[C@H](C)O1` [doxorubicin]: the pHH3-positive cells (Chk1-depleted U2OS cells, 12 hours after doxorubicin (1 hour)) is 7.7%; the pHH3-positive cells (Chk1-depleted U2OS cells, 18 hours after doxorubicin (1 hour)) is given as 15%; the pHH3-positive cells (Chk1-depleted U2OS cells, 24 hours after doxorubicin (1 hour)) was 25.6%; the pHH3-positive cells (Chk1-depleted U2OS cells, 30 hours after doxorubicin (1 hour)) came to 29.5%; the pHH3-positive cells (MK2-depleted U2OS cells, 24 hours after doxorubicin (1 hour)) came to 13.2%; the pHH3-positive cells (MK2-depleted U2OS cells, 30 hours after doxorubicin (1 hour)) is recorded as 28.5%. The pHH3-positive cells (MK2 knockdown U2OS cells, 12 hours after doxorubicin (1 hour)) is reported as 3.7%±1.2; the pHH3-positive cells (MK2 knockdown U2OS cells, 18 hours after doxorubicin (1 hour)) was 3.6±0.5%; the pHH3-positive cells (shRNA control U2OS cells, 24 hours after doxorubicin (1 hour)) is listed as 0.9%; the pHH3-positive cells (shRNA control U2OS cells, 30 hours after doxorubicin (1 hour)) came to 1.5%. The “mitotic cells with 4N DNA content staining positive for pHH3” value (MK2 knockdown U2OS cells, 30-hour course, localization-mutant experiment (FIGS. 3B, 3C)) stood at 21.3%.
